Test results: patent publication US12310940B2, “Cell-permeable succinate compounds” (ABLIVA AB, priority 2014, dated 2025)
“Also recorded” adds a separate entry of the source.

Assays:
intact cells [1] = assay: Screening assay (2): enhancement and inhibition of mitochondrial energy producing function in intact cells (FCCP uncoupled); assay type: cell-based, human; set-up: key to Convergent (FCCP): graded either +, ++ or +++ in increasing order of potency; graded either +, ++ or +++ in increasing order of potency; graded either +, ++ or +++ in increasing order of potency; (+): Brackets [( )] indicate an intermediate effect; (++): Brackets [( )] indicate an intermediate effect; (+++) is between ++ and +++; settings: for Convergent (FCCP): increase in mitochondrial oxygen consumption induced by the compound, screening assay 2 (uncoupled conditions); for Toxicity: lowest concentration during compound titration at which a decrease in oxygen consumption is seen, screening assay 2
Experimental: (§1) Measurement of mitochondrial respiration is performed in a high-resolution oxygraph (Oxygraph-2k, Oroboros Instruments, Innsbruck, Austria) at a constant temperature of 37° C. Isolated human platelets, white blood cells, fibroblasts, human heart muscle fibers or other cell types containing live mitochondria are suspended in a 2 mL glass chamber at a concentration sufficient to yield oxygen consumption in the medium of ≥10 pmol O2 s^−1 mL^−1.
(2) Assay for Enhancement and Inhibition of Mitochondrial Energy Producing Function in Intact Cells
In the second protocol the same buffer is used as described above. After basal respiration is established, the mitochondrial uncoupler FCCP is added at a concentration of 2 nM to increase metabolic demand.

intact cells [2] = assay: Screening assay (3): assay to assess uncoupling in intact cells; assay type: cell-based, human; set-up: key: graded either +, ++ or +++ in increasing order of potency; graded either +, ++ or +++ in increasing order of potency; graded either +, ++ or +++ in increasing order of potency; (+): Brackets [( )] indicate an intermediate effect; (++): Brackets [( )] indicate an intermediate effect; (+++) is between ++ and +++; settings: for Convergent (Routine): increase in mitochondrial oxygen consumption induced by the compound; for Uncoupling: level of oxygen consumption after addition of oligomycin
Experimental: Measurement of mitochondrial respiration is performed in a high-resolution oxygraph (Oxygraph-2k, Oroboros Instruments, Innsbruck, Austria) at a constant temperature of 37° C. […] In the third protocol, the same buffer as described above is used. […] Subsequently, the ATP-synthase-inhibitor Oligomycin is added. A reduction in respiration is a measure of how much of the oxygen consumption that is coupled to ATP synthesis. No, or only a slight, reduction indicate that the compound is inducing a proton leak over the inner mitochondrial membrane. The uncoupler FCCP is then titrated to induce maximum uncoupled respiration. […] The experiment is terminated by the addition of 1 μg/mL of the complex III inhibitor Antimycin to measure non-mitochondrial oxygen consumption.

Intact human blood cells = assay: Screening assay (4): enhancement of mitochondrial energy producing function in cells with inhibited respiratory complex I in human plasma; assay type: cell-based; set-up: key: graded either +, ++ or +++ in increasing order of potency; graded either +, ++ or +++ in increasing order of potency; graded either +, ++ or +++ in increasing order of potency; (+): Brackets [( )] indicate an intermediate effect; (++): Brackets [( )] indicate an intermediate effect; (+++) is between ++ and +++; settings: increase in mitochondrial oxygen consumption in cells with inhibited complex I incubated in human plasma
Experimental: Measurement of mitochondrial respiration is performed in a high-resolution oxygraph (Oxygraph-2k, Oroboros Instruments, Innsbruck, Austria) at a constant temperature of 37° C. […] Intact human blood cells are incubated in plasma from the same donor. […] The experiment is terminated by addition of Antimycin at final concentration 1 μg/mL and any residual non-mitochondrial oxygen consumption is measured.

[3] = tested on: cells with inhibited complex I; assay: Screening assay (1): enhancement of mitochondrial energy producing function in cells with inhibited respiratory complex I (high-resolution respirometry); assay type: cell-based, human; set-up: key: graded either +, ++ or +++ in increasing order of potency; graded either +, ++ or +++ in increasing order of potency; graded either +, ++ or +++ in increasing order of potency; (+): Brackets [( )] indicate an intermediate effect; (++): Brackets [( )] indicate an intermediate effect; (+++) is between ++ and +++; settings: increase in mitochondrial oxygen consumption in cells with inhibited complex I
Experimental: as §1
(1) Assay for Enhancement of Mitochondrial Energy Producing Function in Cells with Inhibited Respiratory Complex I
Cells are placed in a buffer containing 110 mM sucrose, HEPES 20 mM, taurine 20 mM, K-lactobionate 60 mM, MgCl2 3 mM, KH2PO4 10 mM, EGTA 0.5 mM, BSA 1 g/l, pH 7.1. […] Compounds dissolved in DMSO are titrated in a range of 10 μM to 10 mM final concentration. Subsequently, cell membranes are permeabilised with digitonin (1 mg/1*10^6 plt) to allow entry of extracellularly released energy substrate or cell impermeable energy substrates. After stabilized respiration, Succinate 10 mM is added as a reference to enable respiration downstream of complex I. After the respiration stabilized the experiment is terminated by addition of Antimycin at final concentration 1 μg/mL and any residual non-mitochondrial oxygen consumption is measured. An increase in respiration rate in the described protocol is tightly coupled to ATP synthesis by oxidative phosphorylation unless cells are uncoupled (i.e. proton leak without production of ATP). Uncoupling is tested for by addition of the ATP synthase inhibitor oligomycin (1-2 μg mL^−1) in a protocol 3 where the extent of uncoupling corresponds to the respiratory rate following oligomycin addition.

intact cells [4] = assay: Assays exemplified in the patent (not specified further) for known succinate esters; assay type: cell-based
Source text: I. Assays for Evaluating Enhancement and Inhibition of Mitochondrial Energy Producing Function in Intact Cells
Four Typical Evaluation Protocols in Intact Cells are Utilized.

intact human platelets [5] = assay: Intervention on metformin- or rotenone-induced lactate production with cell-permeable succinate prodrugs; assay type: cell-based; settings: for effect on rotenone-induced lactate production: 2 μM rotenone, repeated additions of 250 μM; for effect on lactate production of metformin-incubated cells: 10 mM metformin, additions of 250 μM each 30 minutes
Experimental: Lactate production of intact human platelets was determined in PBS containing 10 mM glucose.
(§2) Lactate levels are determined every 2 h (or more frequent eg every 30 min) using the Lactate Pro™ 2 blood lactate test meter (Arkray, Alere AB, Lidingö, Sweden) or similar types of measurements. Incubation is performed at 37° C. pH is measured at start, after 4 and after 8 h (or more frequently) of incubation using a Standard pH Meter, e.g. PHM210 (Radiometer, Copenhagen, Denmark). Drug candidates are added to the assay from start or following 30-60 min at concentrations within the range 10 μM-5 mM. […] In order to evaluate the specificity of the drug candidate, it is also tested in combination with a down-stream inhibitor of respiration such as the complex III inhibitor Antimycin at 1 μg/mL, which should abolish the effect of the drug candidate and restore the production of lactate. The use of antimycin is therefore also a control for undue effects of drug candidates on the lactate producing ability of the cells used in the assay. (See e.g. FIGS. 9, 10 and 11).
Lactate levels were measured in intervals of 30 min with the onset of the experiment. Additionally, pH was measured prior to the first addition of vehicle (dmso, control), the different cell-permeable succinate prodrugs (NV118, NV189, NV241) or succinate and at the end of the experiment.

intact human platelets [6] = tested on: intact human platelets
Experimental: Real-time respirometric measurements were performed using high-resolution oxygraphs (Oxygraph-2k, Oroboros Instruments, Innsbruck, Austria). The experimental conditions during the measurements were the following: 37° C., 2 mL active chamber volume and 750 rpm stirrer speed. […] For data recording, DatLab software version 4 and 5 were used (Oroboros Instruments, Innsbruck, Austria). Settings, daily calibration and instrumental background corrections were conducted according to the manufacturer's instructions. […] All measurements were performed at a platelet concentration of 200×10^6 cells per mL or a PBMC concentration of 5×10^6 cells per mL.
Venous blood from 18 healthy adults (11 males and 7 females) was drawn in K2EDTA tubes (BD Vacutainer® Brand Tube with dipotassium EDTA, BD, Plymouth, UK) according to clinical standard procedure after written informed consent was acquired. For platelet isolation the whole blood was centrifuged (Multifuge 1 S—R Heraeus, Thermo Fisher Scientifics, Waltham, USA) at 500 g at room temperature (RT) for 10 min. Platelet-rich plasma was collected to 15 mL falcon tubes and centrifuged at 4600 g at RT for 8 min. The resulting pellet was resuspended in 1-2 mL of the donor's own plasma. […] The blood remaining after isolation of platelets was washed with an equal volume of physiological saline and layered over 3 mL of Lymphoprep™. After centrifugation at 800 g at RT (room temperature) for 30 min the PBMC layer was collected and washed with physiological saline. Following a centrifugation at 250 g at RT for 10 min the pellet of PBMCs was resuspended in two parts of physiological saline and one part of the donor's own plasma. Cell count for both PBMCs and platelets were performed using an automated hemocytometer (Swelab Alfa, Boule Medical AB, Stockholm, Sweden).
Routine respiration was followed for 60 min at 37° C. before the ATP-synthase inhibitor oligomycin (1 μg mL^−1) was added to assess LEAK respiration. Maximal uncoupled respiratory electron transport system capacity supported by endogenous substrates (ETS) was reached by titration of FCCP.

[7] = tested on: permeabilized human PBMCs; assay: cells; settings: PBMC, read-out: IC50 for inhibition of OXPHOSCI
Experimental: Real-time respirometric measurements were performed using high-resolution oxygraphs (Oxygraph-2k, Oroboros Instruments, Innsbruck, Austria). The experimental conditions during the measurements were the following: 37° C., 2 mL active chamber volume and 750 rpm stirrer speed. […] For data recording, DatLab software version 4 and 5 were used (Oroboros Instruments, Innsbruck, Austria). Settings, daily calibration and instrumental background corrections were conducted according to the manufacturer's instructions. […] Standard non-linear curve fitting was applied to calculate half maximal inhibitory concentration (IC50) values. […] Maximal uncoupled respiratory electron transport system capacity supported by convergent input through complex I and […] ) was evaluated by subsequent titration with the protonophore carbonyl-cyanide p-(trifluoromethoxy) phenylhydrazone (FCCP). […] The complex III inhibitor antimycin (1 μg mL^-1) was then given to reveal residual oxygen consumption (ROX). […] Complex IV activity was calculated by subtracting the sodium azide value from the TMPD value. With exception of complex IV activity, all respiratory states were measured at steady-state and corrected for ROX. Complex IV activity was measured after ROX determination and not at steady-state.

[8] = Al-Abri et al., 2013; cited from earlier work
intact PBMCs = assay: Lactate release of intact PBMCs exposed to metformin; assay type: cell-based, human; settings: 10 mM metformin, data not shown
intact human platelets [9] = assay: Effect of metformin and phenformin on lactate production and pH of intact human platelets; assay type: cell-based; settings: metformin 1 and 10 mM, phenformin 0.5 mM, rotenone 2 μM
Experimental: as §2
Incubation was performed at 37° C. at a stirrer speed of 750 rpm, and pH was measured at start, after 4 and after 8 h of incubation (n=4) using a PHM210 Standard pH Meter (Radiometer, Copenhagen, Denmark).

[10] = patients; cited from earlier work
[11] = tested on: permeabilized human platelets
Experimental: (§3) Real-time respirometric measurements were performed using high-resolution oxygraphs (Oxygraph-2k, Oroboros Instruments, Innsbruck, Austria). The experimental conditions during the measurements were the following: 37° C., 2 mL active chamber volume and 750 rpm stirrer speed. […] For data recording, DatLab software version 4 and 5 were used (Oroboros Instruments, Innsbruck, Austria). Settings, daily calibration and instrumental background corrections were conducted according to the manufacturer's instructions. […] Lactate production of intact human platelets was determined in PBS containing 10 mM glucose. All measurements were performed at a platelet concentration of 200×10^6 cells per mL or a PBMC concentration of 5×10^6 cells per mL.
(§4) All respiratory, lactate and pH data are expressed as mean±SEM. Ratios are plotted as individuals and means. One-way ANOVA was used for one-factor comparison of three or more groups (concentration of drugs) and two-way mixed model ANOVA was used for two-factor comparison (time and concentration of drugs/treatment) of three or more groups. Post-hoc tests to compensate for multiple comparisons were done according to Holm-Sidak. Correlations were expressed as r^2 and P-values. […]
(§5) In order to investigate the specific target of biguanide toxicity, a protocol was applied using digitonin permeabilization of the blood cells and sequential additions of respiratory complex-specific substrates and inhibitors in MiR05 medium. […] Maximal uncoupled respiratory electron transport system capacity supported by convergent input through complex I and II (ETSCI+II) was evaluated by subsequent titration with the protonophore carbonyl-cyanide p-(trifluoromethoxy) phenylhydrazone (FCCP). […] Complex IV activity was calculated by subtracting the sodium azide value from the TMPD value. With exception of complex IV activity, all respiratory states were measured at steady-state and corrected for ROX. Complex IV activity was measured after ROX determination and not at steady-state.

[12] = tested on: permeabilized human platelets; assay: cells; settings: Platelet, read-out: IC50 for inhibition of OXPHOSCI
Experimental: as §3, §4, §5

Structure (SMILES) | Convergent (FCCP) (intact cells [1]) | Toxicity (intact cells [1]) | Convergent (Routine) (intact cells [2]) | Uncoupling (intact cells [2]) | CII (plasma) (Intact human blood cells) | CII [3] | also measured
CCC(=O)N[C@@H](CSC(=O)CCC(=O)O)C(=O)O [01-041, (R)-4-(2-carboxy-2-propionamidoethylthio)-4-oxobutanoic acid] | +++ | 5 mM | + | (+) | + | ++ | –
CC(=O)NCCSC(=O)CCC(=O)O [01-108, 4-(2-acetamidoethylthio)-4-oxobutanoic acid] | ++ | 10 mM | ++ | + | (+) | (++) | –
CCC(=O)NCCSC(=O)CCC(=O)O [01-114, 4-oxo-4-(2-propionamidoethylthio)butanoic acid] | ++ | 10 mM | +++ | (+) | + | ++ | –
CCC(=O)N[C@@H](CSC(=O)CCC(=O)SC[C@H](NC(=O)CC)C(=O)N(CC)CC)C(=O)N(CC)CC [01-185, S,S-bis((R)-3-(diethylamino)-3-oxo-2-propionamidopropyl) butanebis(thioate)] | + | 2 mM | (+) | (+) | + | + | –
CC(=O)NCC(C)(C)SC(=O)CCC(=O)O [01-188, 4-(1-acetamido-2-methylpropan-2-ylthio)-4-oxobutanoic acid] | +++ | 5 mM | +++ | (+) | + | + | –
CCN(CC)C(=O)COCCSC(=O)CCC(=O)O [01-193, 4-(2-(2-(diethylamino)-2-oxoethoxy)ethylthio)-4-oxobutanoic acid] | + | 5 mM | (++) | + | (+) | + | –
CCC(=O)N[C@@H](CSC(=O)CCC(=O)SC[C@H](NC(=O)CC)C(=O)OC)C(=O)OC [01-205, (R)-methyl 3-(4-((R)-3-methoxy-3-oxo-2-propionamidopropylthio)-4-oxobutanoylthio)-2-propionamidopropanoate] | ++ | 5 mM | +++ | (+) | + | ++ | –
CCOC(=O)CCC(=O)OCC [Diethyl succinate] | – | – | – | – | – | – | activity in the assays exemplified (intact cells [4]): inactive
CC(=O)OCOC(=O)CCC(=O)OCOC(C)=O [NV118] | – | – | – | – | – | – | effect on rotenone-induced lactate production (intact human platelets [5]): attenuated; effect on lactate production of metformin-incubated cells (intact human platelets [5]): significantly decreased
CC(=O)OC(C)OC(=O)CCC(=O)OC(C)OC(C)=O (stereo not drawn) [NV189] | – | – | – | – | – | – | effect on rotenone-induced lactate production (intact human platelets [5]): attenuated; also recorded: brought back to normal; effect on lactate production of metformin-incubated cells (intact human platelets [5]): significantly decreased
CC(=O)OCOC(=O)CCC(=O)OC(C)OC(C)=O (stereo not drawn) [NV241] | – | – | – | – | – | – | effect on rotenone-induced lactate production (intact human platelets [5]): attenuated; effect on lactate production of metformin-incubated cells (intact human platelets [5]): significantly decreased
COC(=O)CCC(=O)OC [dimethyl succinate] | – | – | – | – | – | – | activity in the assays exemplified (intact cells [4]): inactive
CN(C)C(=N)N=C(N)N [metformin] | – | – | – | – | – | – | LEAK respiration in intact cells (intact human platelets [6]; data not shown): not significantly changed; toxic concentration seen in the present study (intact human platelets [6]; human blood cells): 1 mM; reversibility of complex I inhibition upon removal of the drug (intact human platelets [6]; washing and permeabilizing the cells): did not seem to be reversible; IC50 [7]: 450 µM; serum level in a case report of involuntary intoxication, prior to hemodialysis [8]: over 2 mM; lactate release of intact PBMCs (intact PBMCs): increased lactate release
COC(=O)CCC(=O)O [monomethyl succinate] | – | – | – | – | – | – | activity in the assays exemplified (intact cells [4]): inactive
[H]/N=C(/N)N/C(=N/[H])NCCc1ccccc1 [phenformin] | – | – | – | – | – | – | lactate produced over 8 h of treatment compared to control (intact human platelets [9]): significantly more lactate; incidence of lactic acidosis [10]: 4 cases per 10000 treatment-years; effect on OXPHOSCI, OXPHOSCI+II and ETSCI+II [11]: inhibited; potency of inhibition of OXPHOSCI relative to metformin [11]: 20 fold; IC50 [12]: 58 µM
O=C(O)CCC(=O)O [succinate] | – | – | – | – | – | – | effect on lactate production of metformin-incubated cells (intact human platelets [5]): did not reduce; also recorded: did not change this
